Assay results: patent US20140377289A1, “Metallodrugs Having Improved Pharmacological Properties, and Methods of Manufacture and Use Thereof” (MetalloPharm, LLC, priority 2011, published 2014)
Read-outs that look alike come from different tables or passages of the source. Where a SMILES comes first, the peptide text is derived from it. [ ]: non-standard residue; d: D form. Cha = N[C@@H](CC1CCCCC1)C(=O)O

Columns and labels:
HCV protease = HCV protease (Hepatitis C virus genotype 1a, UniProt P27958); test: biochemical; format: binding
Text: This stems from the relationship between affinity and the on/off rate constants for binding (KA=kon/koff), where higher affinity binding is promoted by larger kon and/or smaller koff values. By contrast, efficient catalytic turnover requires koff values that are preferably no smaller than the rate constant for the inactivation chemistry (kcat), to ensure the availability of metallodrug catalyst for new target molecules, and will be best promoted by relatively high values for both kon and koff, which will result in weaker KA values.
Apparent binding affinities and rates of inactivation for HCV protease by several metallopeptide derivatives incorporating a Cu-GGH metal binding domain and C-terminal HCV protease targeting peptides were prepared and their affinity and reactivity were evaluated under in the presence of various redox reagents. Affinities lay within the range of 10^4M^−1 and 5×10^8 M^−1.

pUC19 plasmid DNA = test: DNA nicking and linearization nuclease assay; format: biochemical; details: 10 μM base pairs pUC19, ascorbate/peroxide; for klin for DNA linearization, without attached Rev (M-chelate) / knick for DNA nicking, without attached Rev (M-chelate): — = Below detection limit; for klin for DNA linearization, with attached Rev (M-chelate-REV) / knick for DNA nicking, with attached Rev (M-chelate-REV): 100 nM M-chelate-Rev
[1] = system: HCV RNA replicon in ET (luc-ubi-neo/ET) Huh7 cells; details: read-out: antiviral IC50; 72 h, replicon-derived Luc activity
in vitro = details: human
[2] = target: stem-loop IIb of HCV IRES RNA; format: binding, hepatitis C virus (HCV)
Experimental: RNA was purchased from Dharmacon, part of Thermo Fisher Scientific (Lafayette, Colo.). Peptides were purchased from Genemed Synthesis Inc (South San Francisco, Calif.) with C-terminal amidation. The stem-loop (SL) structure (from Lytle et al., RNA 13: 539-48, 2002) is depicted in FIG. 6. The sequence for the IRES SL IIb RNA used was 5′-Fluorescein-[…]-3′, and for the IRES SL IV RNA was 5′-Fluorescein-[…]-3′. All RNA was annealed by heating to 95° C. and then cooled slowly to room temperature before use.
RNA binding experiments were performed in the presence of 84 nM GGHYrFK-amide in 20 mM HEPES (pH 7.4), 100 mM NaCl. For GGHYrFK-amide, serial additions of unlabeled IRES RNA were added and tyrosine emission was monitored (λex=280 nm, λem=313 nm). Binding data for GGHYr[…]-amide and GGHYr[…]-amide were obtained by adding serial additions of peptide to 5′-fluorescein labeled IRES SLIIb and monitoring at 518 nm (Ex=485 nm). Data was then fit to a one-site binding model.

[3] = system: stem loop IIb HCV IRES RNA; format: biochemical, hepatitis C virus (HCV)
Experimental: HCV IRES RNA cleavage was monitored in vitro by fluorescence using 5′ fluorescein end-labeled RNA with excitation and emission wavelengths of 485 nm and 518 nm, respectively. Reactions were carried out in reaction volumes of 100 μl in the presence of 1 mM ascorbate and 1 mM H2O2 in 20 mM HEPES buffer (pH=7.4), 100 mM NaCl with 100 nM of the catalyst and analyzed according to the change in fluorescence observed as the reaction occurred. Both a time-dependence and a concentration-dependence of RNA substrate were observed. The initial velocities were fit to a line using Origin 7.0 software and kobs obtained. These values were then used to obtain the Michaelis-Menten parameters.
The reactivity of select catalytic metallodrugs was investigated by Michaelis-Menten profiles. Reaction chemistry was followed by monitoring the fluorescence change of 5′-fluorescein-labeled RNA as a function of time. Initial velocities were measured as a function of substrate (RNA) concentration to generate a standard Michaelis-Menten plot (FIG. 2).

[4] = system: ET (luc-ubi-neo/ET) Huh7 human hepatoma cell line; details: read-out: cytotoxicity TC50; 72 h, CytoTox-1 colorimetric assay
HIV RRE RNA (AP-RRE RNA) = format: binding; details: for Kd: 37° C., pH 7.4
Experimental: Determination of Dissociation Constants. […] A 660 μL volume of 100 nM AP-RRE RNA was first heated to 90° C. for 5 min and then allowed to cool to, but not below, the titration temperature (37° C.). A 650 μL volume of this sample was added to the pre-thermostatted cuvette. After 10 min of temperature equilibration a solution of 5 μM M-chelate-Rev complex was titrated into the solution. After each addition, 100 μL of the solution was mixed by gentle pipeting to ensure complete mixing. The fluorescence change associated with the change of environment of the aminopurine label was monitored following peptide binding. Titration response curves were dilution and background corrected and normalized to initial intensity values. Curves were fit to a biphasic equation (4) for two independent binding sites where Fobs is the total observed fluorescence intensity, P0 is the total concentration of added M-chelate-Rev, F0, F1, and F2 are fitting parameters corresponding to the intensities of the unbound, singly-bound, and doubly-bound AP-RNA, respectively, R0 is the initial concentration of AP-RNA, and KD1 and KD2 are dissociation constants for binding at the high- and low-affinity sites, respectively. All binding experiments were performed in a binding buffer composed of 20 mM HEPES, 100 mM NaCl, pH 7.4.

[5] = system: 5′ fluorescein end-labeled RRE stem IIB RNA (Fl-RNA); test: PAGE analysis of RRE RNA cleavage kinetics; format: biochemical, HIV; details: 100 nM complex, 100 nM Fl-RNA, 1 mM H2O2, 1 mM ascorbate, 37° C.; initial rate
Experimental: PAGE Analysis of RRE RNA Cleavage Kinetics. Reactions of 100 nM metal-chelate-Rev (1:1.2 M:chelate ratio), 1 mM H2O2, 1 mM ascorbate, and 100 nM 5′ fluorescein end-labeled RRE stem IIB RNA (Fl-RNA) were conducted at 37° C. in separate tubes, each containing 20 μL total reaction volume—one tube corresponding to one gel lane. A buffer consisting of 20 mM HEPES, 100 mM NaCl, pH 7.4 was used in all experiments. Fl-RNA was heated to 90° C. and allowed to cool to, but not below 37° C. prior to reaction, and the Fl-RNA was immediately added to each pre-incubated tube. Reactants were added to pre-incubated tubes at time-points corresponding to the beginning of each reaction, which were performed in a dark incubator. Reaction start times were staggered and all reactions were quenched at the same time by addition of a quenching/gel-loading buffer solution (80 μL/tube) consisting of standard 1× tris-EDTA-acetic acid buffer, 8M urea, 20 mM HEPES, 100 mM NaCl. The tubes were then heated to 90° C. for 5 min and a 5 μL aliquot from each tube was then loaded into its corresponding lane of a 10% polyacrylamide 8 M urea gel, resulting in […] Fl-RNA per lane. Gel electrophoresis was performed at 250 V for 1.5 h. Gels were analyzed on a GE Typhoon variable mode imager using 488 nm excitation and a 526 nm single pass emission filter. Bands were quantified with the program ImageQuant. Loss of initial Fl-RNA reactant bands were fit to a first-order reaction equation using the software Origin, and observed rate constants and initial rates were determined. Control reactions with respective metal-chelates lacking the Rev domain were conducted in the same manner.

[6] = system: AP-RNA (aminopurine-labeled RRE RNA); test: Reaction kinetics monitored by real-time fluorimetry, AP-RNA; format: biochemical, HIV; details: 100 nM complex, 100 nM AP-RNA, 1 mM H2O2, 1 mM ascorbate, 37° C.; initial rate
Experimental: Reaction Kinetics Monitored by Real-Time Fluorimetry. Reactions of 100 nM metal-chelate-Rev (1:1.2 M:chelate ratio), 1 mM H2O2, 1 mM ascorbate, and 100 nM AP-RNA were conducted at 37° C. in a fluorescence cuvette in a Varian Cary Eclipse fluorescence spectrophotometer. Reactions were monitored using excitation at 310 nm (SW=10 nm) and emission at 371 nm (SW=10 nm). Prior to reaction the AP-RNA was pre-heated to 90° C. for 5 min and then added to the pre-warmed 37° C. cuvette. The metal-chelate-Rev complexes were added after 5 min, and reactions were initiated by the addition of H2O2 and ascorbate after an additional 10 min. Each resulting fluorescence trace was fit to a first-order reaction equation using the software Origin, and observed rate constants and initial rates were determined; the magnitude of fluorescence change that corresponded to complete reaction was established by averaging the magnitudes of fluorescence change from many trials known to react to completion. All concentrations and buffer were identical to those used in the PAGE analysis assay with Fl-RNA. Control reactions with respective metal-chelates lacking the Rev domain were conducted in the same manner.

[7] = Michaelis-Menten, stem-loop IIb RNA as substrate
[8] = high-affinity RRE RNA site, read-out: KD1
[9] = low-affinity RRE RNA site, read-out: KD2

Sequence of HCV protease (P27958 1027-1208, other chains not shown): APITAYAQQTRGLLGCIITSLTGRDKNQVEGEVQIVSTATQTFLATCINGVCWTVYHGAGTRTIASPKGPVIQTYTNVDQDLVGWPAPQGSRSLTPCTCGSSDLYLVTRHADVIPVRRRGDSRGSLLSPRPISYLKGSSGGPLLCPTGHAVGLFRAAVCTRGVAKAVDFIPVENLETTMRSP

Row | Molecule | IC50 [1] [nM] | CC50 [4] [nM] | KA1 (HIV RRE RNA (AP-RRE RNA); high-affinity RRE RNA site) | Kd (HIV RRE RNA (AP-RRE RNA); [8]) [nM] | KA2 (HIV RRE RNA (AP-RRE RNA); low-affinity RRE RNA site) | Kd (HIV RRE RNA (AP-RRE RNA); [9]) [nM] | Fl-RNA Cleavage Rate [5] [nM/min] | AP-RNA Modification Rate [6] [nM/min] | klin for DNA linearization, with attached Rev (M-chelate-REV) (pUC19 plasmid DNA) [min⁻¹] | knick for DNA nicking, with attached Rev (M-chelate-REV) (pUC19 plasmid DNA) [min⁻¹] | other results
1 | CC[C@H](C)[C@H](NC(=O)[C@H](CC(C)C)NC(=O)[C@@H](CCC(=O)O)NC(=O)[C@H](CC(=O)O)NC(=O)CNC(=O)[C@H](Cc1c[nH]cn1)NC(=O)CNC(=O)CN)C(=O)N[C@@H](CC1CCCCC1)C(=O)N[C@@H](CS)C(=O)O [Cu-GGHGDeLI(Cha)C—CO2^−] (H-GGHGD[dE]LI[Cha]C-OH) |  |  |  |  |  |  |  |  |  |  | Kd (HCV protease): 500 nM; Ki (HCV protease): ~500 nM; KA (HCV protease; apparent binding affinity): ~2e+06 M⁻¹
2 | O=C([O-])CN(CC(=O)[O-])CC(=O)[O-].[Fe+3] [Fe-NTA] |  |  |  |  |  |  |  |  |  |  | klin for DNA linearization, without attached Rev (M-chelate) (pUC19 plasmid DNA): 0.0008 ± 0.0002 min⁻¹; knick for DNA nicking, without attached Rev (M-chelate) (pUC19 plasmid DNA): 0.05 ± 0.01 min⁻¹
3 | O=C(O)CN(CCN(CC(=O)O)CC(=O)O)CC(=O)O.[Ni] [Ni-EDTA] |  |  |  |  |  |  |  |  |  |  | klin for DNA linearization, without attached Rev (M-chelate) (pUC19 plasmid DNA): 0.00019 ± 0.00002 min⁻¹; knick for DNA nicking, without attached Rev (M-chelate) (pUC19 plasmid DNA): 0.037 ± 0.002 min⁻¹
4 | N=C(N)NCCC[C@@H](NC(=O)[C@@H](N)Cc1ccc(O)cc1)C(=O)N[C@@H](Cc1ccccc1)C(=O)N[C@@H](CCCCN)C(N)=O [YrFK, reference compound] | > 100000 |  |  |  |  |  |  |  |  |  | CC50 at 72 h (in vitro): > 100000 nM
5 | Cu complex of ATCUN peptide GGHYrFK, C-terminal amidated; targets stem-loop IIb of HCV IRES RNA [Cu-GGHYrFK-amide] | 580 | > 100000 |  |  |  |  |  |  |  |  | Kd ([2]; change in tyrosine emission at 313 nm): 44 ± 2 nM; KA ([2]; stem-loop IIb): 2.27e+07 M⁻¹; Km [3, 7]: 0.85 µM; kcat [3, 7]: 0.00883 s⁻¹; Vmax ([3]; cleavage of stem-loop IIb, 100 nM catalyst, 1 mM ascorbate, 1 mM H2O2): 1.71 RFU/min; turnover number ([3]; stem-loop IIb RNA as substrate): 32
6 | Cu complex of DOTA coupled to K-Rev, Ac-KTRQARRNRRRRWRERQR-NH2 [Cu-DOTA-Rev] |  |  | 25 10^8 M^−1 | 0.4 ± 0.1 | 0.02 10^8 M^−1 | 488 ± 9 | 0.8 ± 0.1 | 2.8 ± 0.1 | 0.0025 ± 0.0008 | 0.043 ± 0.007 | 
7 | Cu complex of GGH-Rev, GGHTRQARRNRRRRWRERQR-NH2 [Cu-GGH-Rev] |  |  | 25 10^8 M^−1 | 4.6 ± 0.5 | 0.028 10^8 M^−1 | 363 ± 9 | 0.045 ± 0.005 | 0.4 ± 0.3 | 0.0013 ± 0.0001 | 0.069 ± 0.006 | 
8 | Cu complex of KGHK-Rev, KGHKTRQARRNRRRRWRERQR-NH2 [Cu-KGHK-Rev] |  |  | 7.7 10^8 M^−1 | 1.3 ± 0.5 | 0.066 10^8 M^−1 | 148 ± 5 | 0.060 ± 0.005 | 0.511 ± 0.003 | 0.0062 ± 0.0006 | 0.17 ± 0.04 | 
9 | Cu-GGHAALEAKICHQIEYYFGDF | 3460 | 41100 |  |  |  |  |  |  |  |  | 
10 | Cu-GGHGAALEAKICHQIEYYFGDF | 6250 | 52000 |  |  |  |  |  |  |  |  | 
